Where a name gives a salt, the structure may show the parent alone.
Each compound was assayed against human Factor XIa (Homo sapiens (Human), UniProt P03951) (assay: Factor XIa Assay). Conditions: purified human Factor XIa 40 pM, Z-Gly-Pro-Arg-AFC 100 μM, pH 7.4; read-out: FXIa Ki.
Assay type: biochemical
Method: The effectiveness of a compound of the present invention as an inhibitor of Coagulation Factor XIa can be determined using a relevant purified serine protease, and an appropriate synthetic substrate. The rate of hydrolysis of the chromogenic or fluorogenic substrate by the relevant serine protease was measured both in the absence and presence of compounds of the present invention. Assays were conducted at room temperature or at 37° C. […] A decrease in the rate of fluorescence change in the presence of inhibitor is indicative of enzyme inhibition. Such methods are known to one skilled in the art. The results of this assay are expressed as the inhibitory constant, Ki.
Factor XIa determinations were made in 50 mM HEPES buffer at pH 7.4 containing 150 mM NaCl, 5 mM CaCl2, and 0.1% PEG 8000 (polyethylene glycol; JT Baker or Fisher Scientific). Determinations were made using purified human Factor XIa at a final concentration of 40 pM (Sekisui Diagnostics) and he synthetic substrate, Z-Gly-Pro-Arg-AFC, TFA salt (Sigma #C0980) at a concentration of 100 μM.
Times required to achieve equilibration between enzyme and inhibitor were determined in control experiments. Initial velocities of product formation in the absence (Vo) or presence of inhibitor (Vi) were measured. Assuming competitive inhibition, and that unity is negligible compared Km/[S], [I]/e, and [I]/e (where [S], [I], and e respectively represent the total concentrations, of substrate, inhibitor and enzyme), the equilibrium constant (Ki) for dissociation of the inhibitor from the enzyme can be obtained from the dependence of Vo/Vi on [I] shown in the following equation.

Sequence of human Factor XIa (P03951 388-625): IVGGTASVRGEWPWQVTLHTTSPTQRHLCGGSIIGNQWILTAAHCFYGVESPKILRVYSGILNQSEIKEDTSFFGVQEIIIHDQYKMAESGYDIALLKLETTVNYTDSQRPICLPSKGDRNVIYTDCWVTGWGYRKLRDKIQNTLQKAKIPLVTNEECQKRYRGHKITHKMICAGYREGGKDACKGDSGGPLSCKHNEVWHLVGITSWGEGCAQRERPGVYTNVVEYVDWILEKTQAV
Sequence of human Factor XIa (P03951 19-387 partner): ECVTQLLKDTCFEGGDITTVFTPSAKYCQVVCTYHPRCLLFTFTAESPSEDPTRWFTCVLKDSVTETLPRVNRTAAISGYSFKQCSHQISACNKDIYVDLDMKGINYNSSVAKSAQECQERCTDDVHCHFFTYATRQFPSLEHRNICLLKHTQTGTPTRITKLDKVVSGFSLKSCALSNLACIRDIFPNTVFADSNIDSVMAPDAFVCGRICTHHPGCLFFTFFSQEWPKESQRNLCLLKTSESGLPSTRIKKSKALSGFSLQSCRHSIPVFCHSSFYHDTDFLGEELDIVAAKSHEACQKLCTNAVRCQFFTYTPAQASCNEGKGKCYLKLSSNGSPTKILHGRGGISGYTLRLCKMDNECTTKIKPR

Row | Structure (SMILES) | Ki [nM]
1 | COC(=O)Nc1ccc(C(=O)N[C@@H](CC(F)(F)F)C(=O)N2CCC[C@@]3(C2)OC(=O)Nc2ccc(Cl)cc23)cc1 [Example 64, methyl (4-(((S)-1-((R)-6-chloro-2-oxo-1,2-dihydrospiro[benzo[d][1,3]oxazine-4,3′-piperidin]-1′-yl)-4,4,4-trifluoro-1-oxobutan-2-yl)carbamoyl)phenyl)carbamate] | 1930
2 | COC(=O)Nc1ccc(C(=O)NC(CC2CCS(=O)(=O)CC2)C(=O)N2CCC3(C2)OC(=O)Nc2ccc(Cl)cc23)cc1 (stereo not drawn) [Example 42, methyl (4-((1-(6-chloro-2-oxo-1,2-dihydrospiro[benzo[d][1,3]oxazine-4,3′-pyrrolidin]-1′-yl)-3-(1,1-dioxidotetrahydro-2H-thiopyran-4-yl)-1-oxopropan-2-yl)carbamoyl)phenyl)carbamate] | 83.6
3 | COC(=O)Nc1ccc(C(=O)N[C@@H](Cc2ccccc2)C(=O)N2CC[C@@]3(C2)OC(=O)Nc2ccccc23)cc1 [Example 2, methyl (4-(((S)-1-oxo-1-((R)-2-oxo-1,2-dihydrospiro[benzo[d][1,3]oxazine-4,3′-pyrrolidin]-1′-yl)-3-phenylpropan-2-yl)carbamoyl)phenyl)carbamate] | 220
4 | COC(=O)Nc1ccc(-c2c[nH]c([C@H](Cc3ccccc3)C(=O)N3CC[C@]4(C3)OC(=O)Nc3ccc(Cl)cc34)n2)cc1 [Example 122b, methyl (4-(2-((S)-1-((S)-6-chloro-2-oxo-1,2-dihydrospiro[benzo[d][1,3]oxazine-4,3′-pyrrolidin]-1′-yl)-1-oxo-3-phenylpropan-2-yl)-1H-imidazol-4-yl)phenyl)carbamate] | 4690
5 | O=C1Nc2ccc(Cl)cc2[C@@]2(CCCN(C(=O)C(Cc3ccc(F)cc3)c3nc(Cl)c(-c4ccc(F)cc4)[nH]3)C2)O1 (stereo partly drawn) [Example 127, (4R)-6-chloro-1′-(2-(4-chloro-5-(4-fluorophenyl)-1H-imidazol-2-yl)-3-(4-fluorophenyl)propanoyl)spiro[benzo[d][1,3]oxazine-4,3′-piperidin]-2(1H)-one] | 5000
6 | COC(=O)Nc1ccc(C(=O)N[C@@H](Cc2ccccc2)C(=O)N2CCC3(CC(=O)Nc4ccc(Cl)cc43)C2)cc1 (stereo partly drawn) [Example 18, methyl (4-(((2S)-1-(6′-chloro-2′-oxo-2′,3′-dihydro-1′H-spiro[pyrrolidine-3,4′-quinolin]-1-yl)-1-oxo-3-phenylpropan-2-yl)carbamoyl)phenyl)carbamate] | 5000
7 | COC(=O)Nc1ccc(C(=O)N[C@@H](CC2CCCC2)C(=O)N2CCC[C@@]3(C2)OC(=O)Nc2ccc(Cl)cc23)cc1 [Example 73, methyl (4-(((S)-1-((R)-6-chloro-2-oxo-1,2-dihydrospiro[benzo[d][1,3]oxazine-4,3′-piperidin]-1′-yl)-3-cyclopentyl-1-oxopropan-2-yl)carbamoyl)phenyl)carbamate] | 32
8 | O=C1Nc2ccc(Cl)c(F)c2[C@@]2(CCCN(C(=O)[C@H](Cc3cnccn3)NC(=O)c3ccc4[nH]c(=O)ccc4c3)C2)O1 [Example 114, N-((S)-1-((R)-6-chloro-5-fluoro-2-oxo-1,2-dihydrospiro[benzo[d][1,3]oxazine-4,3′-piperidin]-1′-yl)-1-oxo-3-(pyrazin-2-yl)propan-2-yl)-2-oxo-1,2-dihydroquinoline-6-carboxamide] | 74.4
9 | COC(=O)Nc1ccc(C(=O)N[C@@H](CCCCNC(=O)C(F)(F)F)C(=O)N2CCC[C@@]3(C2)OC(=O)Nc2ccc(Cl)cc23)cc1 [Example 54, methyl (4-(((S)-1-((R)-6-chloro-2-oxo-1,2-dihydrospiro[benzo[d][1,3]oxazine-4,3′-piperidin]-1′-yl)-1-oxo-6-(2,2,2-trifluoroacetamido)hexan-2-yl)carbamoyl)phenyl)carbamate] | 52
10 | COC(=O)Nc1ccc(C(=O)N[C@@H](Cc2ccc(NS(C)(=O)=O)cc2)C(=O)N2CCC[C@@]3(C2)OC(=O)Nc2ccc(Cl)cc23)cc1 [Example 46, methyl (4-(((S)-1-((R)-6-chloro-2-oxo-1,2-dihydrospiro[benzo[d][1,3]oxazine-4,3′-piperidin]-1′-yl)-3-(4-(methylsulfonamido)phenyl)-1-oxopropan-2-yl)carbamoyl)phenyl)carbamate] | 0.39
11 | COC(=O)Nc1ccc(C(=O)N[C@@H](Cc2ccccc2)C(=O)N2CCC[C@@]3(C2)OC(=O)Nc2cc(F)c(Cl)c(F)c23)cc1 [Example 11, methyl (4-(((S)-1-((R)-6-chloro-5,7-difluoro-2-oxo-1,2-dihydrospiro[benzo[d][1,3]oxazine-4,3′-piperidin]-1′-yl)-1-oxo-3-phenylpropan-2-yl)carbamoyl)phenyl)carbamate] | 51
12 | COC(=O)Nc1ccc(C(=O)N[C@@H](CC2CC2)C(=O)N2CC[C@]3(C2)OC(=O)Nc2ccc(Cl)cc23)cc1 [Example 21a, methyl (4-(((S)-1-((S)-6-chloro-2-oxo-1,2-dihydrospiro[benzo[d][1,3]oxazine-4,3′-pyrrolidin]-1′-yl)-3-cyclopropyl-1-oxopropan-2-yl)carbamoyl)phenyl)carbamate] | 726
13 | COC(=O)Nc1ccc(C(=O)N[C@@H](CCN2CCC2)C(=O)N2CC[C@@]3(C2)OC(=O)Nc2ccc(Cl)cc23)cc1 [Example 112, methyl (4-(((S)-4-(azetidin-1-yl)-1-((R)-6-chloro-2-oxo-1,2-dihydrospiro[benzo[d][1,3]oxazine-4,3′-pyrrolidin]-1′-yl)-1-oxobutan-2-yl)carbamoyl)phenyl)carbamate] | 219
14 | COC(=O)Nc1ccc(C(=O)N[C@@H](Cc2cnc3ccccc3n2)C(=O)N2CCC[C@@]3(C2)OC(=O)Nc2ccc(Cl)c(F)c23)cc1 [Example 69, methyl (4-(((S)-1-((R)-6-chloro-5-fluoro-2-oxo-1,2-dihydrospiro[benzo[d][1,3]oxazine-4,3′-piperidin]-1′-yl)-1-oxo-3-(quinoxalin-2-yl)propan-2-yl)carbamoyl)phenyl)carbamate] | 36.2
15 | COC(=O)Nc1ccc(-c2nc(C(Cc3ccccc3)C(=O)N3CCCC4(C3)OC(=O)Nc3ccc(Cl)c(F)c34)[nH]c2Cl)cc1 (single isomer, unassigned) [Example 126B, methyl (4-(5-chloro-2-(1-(6-chloro-5-fluoro-2-oxo-1,2-dihydrospiro[benzo[d][1,3]oxazine-4,3′-piperidin]-1′-yl)-1-oxo-3-phenylpropan-2-yl)-1H-imidazol-4-yl)phenyl)carbamate] | 154
16 | COC(=O)Nc1ccc(C(=O)N[C@@H](CC[S+](C)[O-])C(=O)N2CCC[C@@]3(C2)OC(=O)Nc2ccc(Cl)cc23)cc1 (stereo partly drawn) [Example 56, methyl (4-(((2S)-1-((R)-6-chloro-2-oxo-1,2-dihydrospiro[benzo[d][1,3]oxazine-4,3′-piperidin]-1′-yl)-4-(methylsulfinyl)-1-oxobutan-2-yl)carbamoyl)phenyl)carbamate] | 102
17 | COC(=O)Nc1ccc(C(=O)N[C@@H](CCNC(=O)OC2CCC2)C(=O)N2CCC[C@@]3(C2)OC(=O)Nc2ccc(Cl)cc23)cc1 [Example 109, methyl (4-(((S)-1-((R)-6-chloro-2-oxo-1,2-dihydrospiro[benzo[d][1,3]oxazine-4,3′-piperidin]-1′-yl)-4-((cyclobutoxycarbonyl)amino)-1-oxobutan-2-yl)carbamoyl)phenyl)carbamate] | 48.3

Same assay, conditions: read-out: FXIa Ki

Row | Structure (SMILES) | Ki [nM]
18 | O=C1Nc2ccc(Cl)cc2[C@@]2(CCCN(C(=O)[C@H](Cc3ccccc3)NC(=O)c3ccc4c(O)cc(=O)[nH]c4c3)C2)O1 [Example 221] | 518
19 | O=C1Nc2ccc(Cl)cc2C2(CCN(C(=O)[C@H](Cc3ccccc3)NC(=O)c3ccc4cc(C(=O)O)ccc4c3)C2)O1 (stereo partly drawn) [Example 259] | 298
20 | CC(N[C@@H](Cc1ccccc1)C(=O)N1CC[C@@]2(C1)OC(=O)Nc1ccc(Cl)cc12)c1ccc2c(N)n[nH]c2c1 (stereo partly drawn) [Example 224, (4R)-1′-((1-(3-amino-1H-indazol-6-yl)ethyl)-L-phenylalanyl)-6-chlorospiro[benzo[d][1,3]oxazine-4,3′-pyrrolidin]-2(1H)-one dihydrochloride] | 8750
21 | COC(=O)Nc1ccc(C(=O)N[C@@H](CC2CC2)C(=O)N2CCC[C@@]3(C2)OC(=O)Nc2ccc(Cl)cc23)c(Cl)c1 [Example 201, methyl (3-chloro-4-(((S)-1-((R)-6-chloro-2-oxo-1,2-dihydrospiro[benzo[d][1,3]oxazine-4,3′-piperidin]-1′-yl)-3-cyclopropyl-1-oxopropan-2-yl)carbamoyl)phenyl)carbamate] | 91.3
22 | O=C1Cc2ccc(C(=O)N[C@@H](Cc3ccccc3)C(=O)N3CCC4(C3)OC(=O)Nc3ccc(Cl)cc34)cc2N1 (stereo partly drawn) [Example 174] | 261
23 | O=C1C[S+]([O-])c2cc(C(=O)N[C@@H](Cc3ccccc3)C(=O)N3CCC4(C3)OC(=O)Nc3ccc(Cl)cc34)ccc2N1 (stereo partly drawn) [Example 192, N-((2S)-1-(6-chloro-2-oxo-1,2-dihydrospiro[benzo[d][1,3]oxazine-4,3′-pyrrolidine]-1′-yl)-1-oxo-3-phenylpropan-2-yl)-3-oxo-3,4-dihydro-2H-benzo[b][1,4]thiazine-7-carboxamide 1-oxide] | 99.7
24 | O=C1Nc2ccc(Cl)cc2C2(CCN(C(=O)[C@H](Cc3ccccc3)NC(=O)c3ccc4cn[nH]c4c3)C2)O1 (stereo partly drawn) [Example 182] | 137

Reference: patent publication US10093683B2, “Factor XIa inhibitors” (Merck Sharp & Dohme Corp., priority 2014, dated 2018)
